For this test, the target named is EGFR (UniProt P00533).

For 67 molecules, IC50 results are on record in the Kinase Knowledgebase extract (Sharma et al. 2016).

Converted amounts (≈) assume the structure as drawn.

EGFR, sequence (P00533 whole entry, looked up): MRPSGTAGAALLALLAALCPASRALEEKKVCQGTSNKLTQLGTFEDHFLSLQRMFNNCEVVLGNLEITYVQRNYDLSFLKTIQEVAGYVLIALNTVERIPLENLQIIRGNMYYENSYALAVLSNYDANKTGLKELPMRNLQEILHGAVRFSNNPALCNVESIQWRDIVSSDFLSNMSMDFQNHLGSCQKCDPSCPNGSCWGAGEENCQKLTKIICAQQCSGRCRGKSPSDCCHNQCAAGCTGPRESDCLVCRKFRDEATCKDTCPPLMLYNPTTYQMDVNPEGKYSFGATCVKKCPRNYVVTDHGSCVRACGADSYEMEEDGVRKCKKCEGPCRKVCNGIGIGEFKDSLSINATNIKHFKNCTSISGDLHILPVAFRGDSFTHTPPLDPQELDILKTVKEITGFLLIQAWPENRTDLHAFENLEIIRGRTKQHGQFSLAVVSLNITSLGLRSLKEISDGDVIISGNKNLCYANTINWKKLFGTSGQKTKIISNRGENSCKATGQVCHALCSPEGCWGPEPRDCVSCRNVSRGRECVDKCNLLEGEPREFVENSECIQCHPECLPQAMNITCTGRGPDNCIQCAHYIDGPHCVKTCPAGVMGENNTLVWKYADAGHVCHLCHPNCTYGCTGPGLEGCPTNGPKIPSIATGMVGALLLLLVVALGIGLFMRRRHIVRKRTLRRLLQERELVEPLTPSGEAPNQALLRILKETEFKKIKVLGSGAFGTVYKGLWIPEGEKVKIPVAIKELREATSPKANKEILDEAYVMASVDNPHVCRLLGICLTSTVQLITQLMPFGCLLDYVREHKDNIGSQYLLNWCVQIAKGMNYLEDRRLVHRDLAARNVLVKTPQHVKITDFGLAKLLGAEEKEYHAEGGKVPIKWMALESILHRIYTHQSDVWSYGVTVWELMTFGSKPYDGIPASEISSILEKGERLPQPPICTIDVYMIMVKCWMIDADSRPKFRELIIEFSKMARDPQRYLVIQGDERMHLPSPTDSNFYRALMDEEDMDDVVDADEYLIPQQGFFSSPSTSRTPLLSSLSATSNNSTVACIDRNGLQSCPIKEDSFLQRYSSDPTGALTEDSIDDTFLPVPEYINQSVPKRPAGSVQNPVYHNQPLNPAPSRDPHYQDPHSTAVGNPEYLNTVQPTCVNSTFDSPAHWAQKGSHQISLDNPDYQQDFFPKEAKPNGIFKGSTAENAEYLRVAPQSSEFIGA

`COc1cc(Nc2ncnc(Nc3cc(F)ccc3F)n2)cc(OC)c1OC` had an IC50 of 0.4 to 2.4 µg/mL (≈ 1.03 to 6.16 µM).

`COc1cc(Nc2ncnc(N3CCc4ccc([N+](=O)[O-])cc43)n2)cc(OC)c1OC`: the IC50 is more than 4.5 µg/mL.

The molecule `COc1cc(Nc2ncnc(-n3c(Nc4ccccc4C)nc4ccccc43)n2)cc(OC)c1OC` displayed an IC50 of 3.5 to 4.5 µg/mL (≈ 7.24 to 9.31 µM).

The molecule `c1ccc(Cn2ncc3cc(Nc4ncnc(Nc5ccc6ncsc6c5)n4)ccc32)cc1` showed an IC50 of less than 0.4 µg/mL.

`COc1cc(Nc2ncnc(-c3ccc(C)cc3)n2)cc(OC)c1OC` showed an IC50 of more than 4.5 µg/mL.

`COc1ccc(Nc2ncnc(NCCCN3CCN(C)CC3)n2)cc1OC` returned an IC50 of more than 4.5 µg/mL.

`COc1cc(Nc2ncnc(-n3c(Nc4cccc(C(N)=O)c4)nc4ccccc43)n2)cc(OC)c1OC`: the IC50 is more than 4.5 µg/mL.

`COc1cc(Nc2ncnc(-c3cccnc3NCC(C)c3ccccc3)n2)cc(OC)c1OC` (configuration not stated) returned an IC50 of more than 4.5 µg/mL.

The molecule `CC(C)(C)c1cc(Nc2ncnc(Nc3ccc(CC(=O)O)cc3)n2)[nH]n1` returned an IC50 of 0.4 to 2.4 µg/mL (≈ 1.09 to 6.53 µM).

Take `COc1ccc2c(c1)nc(Cl)n2-c1ncnc(Nc2cc(OC)c(OC)c(OC)c2)n1.COc1ccc2nc(Cl)n(-c3ncnc(Nc4cc(OC)c(OC)c(OC)c4)n3)c2c1`: the IC50 is more than 4.5 µg/mL.

`COCCOc1ccc(Nc2ncnc(-n3c(N)nc4ccccc43)n2)cc1OC` gave an IC50 of 3.5 to 4.5 µg/mL (≈ 8.59 to 11 µM).

Consider `COc1ccc(CNc2nc3ccccc3n2-c2ncnc(Nc3cc(OC)c(OC)c(OC)c3)n2)cc1OC`, for which the IC50 fell in the range of 2.4 to 3.5 µg/mL (≈ 4.42 to 6.44 µM).

`COC(=O)c1ccc(-c2cc(Nc3ncnc(Nc4cc(F)cc(F)c4)n3)[nH]n2)cc1`: the IC50 was more than 4.5 µg/mL.

For `CN(c1cccc(Cl)c1)c1ncnc(Nc2ccc3nn(C)cc3c2)n1`, the IC50 is less than 0.4 µg/mL.

Consider `COc1cc(Nc2ncnc(-c3cccnc3Nc3ccccc3)n2)cc(OC)c1OC`, for which the IC50 is more than 4.5 µg/mL.

Regarding `COCCOc1ccc(Nc2ncnc(Nc3ccc4[nH]ccc4c3)n2)cc1OCCOC`, the IC50 is less than 0.4 µg/mL.

`COc1cc(Nc2ncnc(NCc3ccccc3)n2)cc(OC)c1OC` registered an IC50 of less than 0.4 µg/mL.

The molecule `COc1cc(Nc2ncnc(Nc3ccc(C(N)=O)cc3)n2)cc(OC)c1OC` gave an IC50 of more than 4.5 µg/mL.

With `O=C(O)/C=C/c1ccc(Nc2ncnc(Nc3cc(-c4ccco4)[nH]n3)n2)cc1`, the IC50 was less than 0.4 µg/mL.

In turn, `COc1cc(Nc2ncnc(-n3c(N)nc4cc([N+](=O)[O-])ccc43)n2)cc(OC)c1OC.COc1cc(Nc2ncnc(-n3c(N)nc4ccc([N+](=O)[O-])cc43)n2)cc(OC)c1OC` had a half-maximal inhibitory concentration (IC50) of more than 4.5 µg/mL.

Regarding `COc1cc(Nc2ncnc(-n3c(NCc4cccc([N+](=O)[O-])c4)nc4ccccc43)n2)cc(OC)c1OC`, the IC50 was more than 4.5 µg/mL.

The molecule `COc1cc(Nc2ncnc(N(C)c3ccc(Cl)cc3)n2)cc(OC)c1OC` gave an IC50 of less than 0.4 µg/mL.

Take `COc1ncnc(Nc2cc(OC)c(OC)c(OC)c2)n1`: the IC50 was more than 4.5 µg/mL.

Molecule `CN(c1cccc(Cl)c1)c1ncnc(Nc2ncccn2)n1` had an IC50 of less than 0.4 µg/mL.

In the case of `Cc1cccc(Nc2ncnc(Nc3ccc4[nH]ccc4c3)n2)c1`, the IC50 is less than 0.4 µg/mL.

As for `COc1cc(Nc2ncnc(-n3c(NCc4nccs4)nc4ccccc43)n2)cc(OC)c1OC`, the IC50 fell in the range of 2.4 to 3.5 µg/mL (≈ 4.89 to 7.13 µM).

`COc1cc(Nc2ncnc(Nc3ccc(NC(=O)OC(C)(C)C)cc3)n2)cc(OC)c1OC` gave an IC50 of more than 4.5 µg/mL.

`CCC(Nc1nc2ccccc2n1-c1ncnc(Nc2cc(OC)c(OC)c(OC)c2)n1)c1ccccc1` (configuration not stated) yielded an IC50 of 0.4 to 2.4 µg/mL (≈ 0.782 to 4.69 µM).

`Nc1ncnc(Nc2ccc(F)cc2F)n1` displayed an IC50 of more than 4.5 µg/mL.

On to `COc1cc(Nc2ncnc(Nc3ccc(F)cc3)n2)cc(OC)c1OC`, for which the IC50 was in the range of 0.4 to 2.4 µg/mL (≈ 1.08 to 6.46 µM).

Regarding `COc1cc(Nc2ncnc(-n3c(NCc4ccc(F)cc4)nc4ccccc43)n2)cc(OC)c1OC`, the IC50 is more than 4.5 µg/mL.

On to `COc1cc(Nc2ncnc(-n3c(Nc4cccc(C)c4)nc4ccccc43)n2)cc(OC)c1OC`, for which the IC50 was more than 4.5 µg/mL.

The molecule `CCOC(=O)CNc1ncnc(N2CCCc3cc(C)ccc32)n1` registered an IC50 of more than 4.5 µg/mL.

As to `COc1ccc(CCNc2ncnc(Nc3cc(-c4ccco4)[nH]n3)n2)cc1OC`, the IC50 was more than 4.5 µg/mL.

`NC(=O)c1ccc(Nc2ncnc(-c3cccs3)n2)cc1` came in with an IC50 of more than 4.5 µg/mL.

In the case of `COc1cc(Nc2ncnc(N3CCC(O)CC3)n2)cc(OC)c1OC`, the IC50 was more than 4.5 µg/mL.

`CC[C@H]1CN(c2ccc(-c3ncnc(Nc4cc(OC)c(OC)c(OC)c4)n3)cn2)CCN1` registered an IC50 of more than 4.5 µg/mL.

`Nc1ncnc(Nc2cccc(C(F)(F)F)c2)n1` came in with an IC50 of more than 4.5 µg/mL.

The molecule `COc1ccc(CNc2ncnc(Nc3cc(-c4ccco4)[nH]n3)n2)cc1OC` had an IC50 of 0.4 to 2.4 µg/mL (≈ 1.02 to 6.1 µM).

`O=c1[nH]c2ccccc2n1-c1ncnc(Nc2cc(Cl)cc(Cl)c2)n1`: the IC50 is more than 4.5 µg/mL.

Consider `COc1cc(Nc2ncnc(-c3cccnc3Nc3cccc(C(C)=O)c3)n2)cc(OC)c1OC`, for which the IC50 was more than 4.5 µg/mL.

Regarding `COCCOc1ccc(Nc2ncnc(-n3c(N)nc4ccccc43)n2)cc1OCCOC`, the IC50 was more than 4.5 µg/mL.

The molecule `COc1ccc(Nc2ncnc(Nc3ccc(F)c(F)c3)n2)cc1OC` had an IC50 of 0.4 to 2.4 µg/mL (≈ 1.11 to 6.68 µM).

Molecule `CC(C)(C)OC(=O)NCc1cccc(Nc2ncnc(Nc3cc(C(C)(C)C)n[nH]3)n2)c1` yielded an IC50 of more than 4.5 µg/mL.

In turn, `COc1cc(Nc2ncnc(-n3ccc4c(OC)cccc43)n2)cc(OC)c1OC` gave an IC50 of more than 4.5 µg/mL.

The molecule `O=c1[nH]c2ccccc2n1-c1ncnc(Nc2ccccc2[N+](=O)[O-])n1` returned an IC50 of more than 4.5 µg/mL.

As for `FC(F)(F)c1cccc(Nc2ncnc(-n3cccc3)n2)c1`, the IC50 is more than 4.5 µg/mL.

For `COc1ccc(Nc2ncnc(NCCCN3CCCCC3C)n2)cc1OC` (configuration not stated), the IC50 was more than 4.5 µg/mL.

With `CCN(CC)CCOc1cc(Nc2ncnc(Nc3cc(OC)c(OC)c(OC)c3)n2)ccc1OC`, the IC50 is more than 4.5 µg/mL.

In turn, `COc1ccc(Nc2ncnc(NCCNC(C)=O)n2)cc1OC` returned an IC50 of more than 4.5 µg/mL.

As for `COc1cc(Nc2ncnc(N3CCCc4cc(C)ccc43)n2)cc(OC)c1OC`, the IC50 was less than 0.4 µg/mL.

Take `COc1cc(Nc2ncnc(Nc3ccccn3)n2)cc(OC)c1OC`: the IC50 was more than 4.5 µg/mL.

Regarding `Clc1cc(Cl)cc(Nc2ncnc(-n3cccc3)n2)c1`, the 50% inhibitory concentration (IC50) was more than 4.5 µg/mL.

`COc1cc(Nc2ncnc(N3CCCC3)n2)cc(OC)c1OC`: the IC50 was more than 4.5 µg/mL.

Turning to `COc1cc(Nc2ncnc(Nc3ccc(O)cc3C)n2)cc(OC)c1OC`, the IC50 was 2.4 to 3.5 µg/mL (≈ 6.26 to 9.13 µM).

Consider `COc1cc(Nc2ncnc(Nc3ccncc3)n2)cc(OC)c1OC`, for which the IC50 is more than 4.5 µg/mL.

On to `COc1ccc(Nc2ncnc(N(C)c3ccc(Cl)cc3)n2)cc1OC`, for which the IC50 is less than 0.4 µg/mL.

The molecule `Cc1nccc(-c2cccc(Nc3ncnc(Nc4ccc5c(cnn5Cc5ccccc5)c4)n3)c2)n1` registered an IC50 of less than 0.4 µg/mL.

Regarding `COc1cc(Nc2ncnc(-c3cccnc3Nc3ccc(C(C)=O)cc3)n2)cc(OC)c1OC`, the IC50 was more than 4.5 µg/mL.

`CN(c1cccc(Cl)c1)c1ncnc(Nc2ccc(OCCO)cc2)n1` displayed an IC50 of less than 0.4 µg/mL.

In turn, `Nc1nc2ccccc2n1-c1ncnc(Nc2ccc(Cl)c(Cl)c2)n1` gave an IC50 of 0.4 to 2.4 µg/mL (≈ 1.07 to 6.45 µM).

`O=c1[nH]c2ccccc2n1-c1ncnc(Nc2cccc3ncccc23)n1` gave an IC50 of more than 4.5 µg/mL.

On to `COC(=O)Cc1cccc(Nc2ncnc(Nc3ccc(C)c(O)c3)n2)c1`, for which the IC50 was 0.4 to 2.4 µg/mL (≈ 1.09 to 6.57 µM).

In turn, `COc1cc(Nc2ncnc(Cl)n2)cc(OC)c1OC` showed an IC50 of more than 4.5 µg/mL.

With `COc1cc(Nc2ncnc(-c3ccnc(Cl)c3)n2)cc(OC)c1OC`, the IC50 is more than 4.5 µg/mL.

Molecule `CN(c1cccc(Cl)c1)c1ncnc(Nc2cc(-c3ccco3)[nH]n2)n1` registered an IC50 of less than 0.4 µg/mL.

The molecule `COc1cc(Nc2ncnc(-c3cccnc3NC(C)c3cccc4ccccc34)n2)cc(OC)c1OC` (configuration not stated) returned an IC50 of more than 4.5 µg/mL.
